The source of these data is patent EP2526954A1, “Bioavailable silicon complex, method for preparing same and use thereof” (Dexsil Labs, priority 2011, dated 2012).

For data set [1] the following is noted: en solution aqueuse, en dessous d'un pH de 6,8; cited from earlier work.
A short description of data set [2]: ATR-FTIR spectroscopy of the effect on artificial lipid bilayer membranes (phase transition). The settings on record: DPPC membranes. An excerpt:
(§1) L'effet, sur les bicouches lipidiques qui constituent les membranes biologiques, d'un complexe suivant l'invention renfermant de l'acide orthosilicique et de la vanilline, a été étudié par spectroscopie ATR-FTIR. Des membranes artificielles formées de DPPC (1,2 dipalmitoyl-sn-glycéro-3-phosphatydilcholine) ou d'un mélange 85/15 de DPPC/DPPS (1,2 dipalmitoyl-sn-glycéro-3-phosphatydilsérine) ont été utilisées. Les membranes présentent des transitions de phase à des températures caractéristiques (Tc à 41 °C et 53°C pour le DPPC et le DPPS respectivement). […] Les résultats tendent à montrer que le complexe s'insère dans la bicouche lipidique et de ce fait diminue les interactions entre les lipides. […] Il se produit une séparation de phase et le mélange lipidique n'est plus homogène. Ceci suggère que le composé aromatique stabilisant l'acide orthosilicique a une affinité plus grande pour un des deux lipides ce qui provoque une ségrégation spatiale des composants de la membrane.

A short description of data set [3]: ATR-FTIR spectroscopy of the effect on artificial mixed lipid bilayer membranes (phase transition). The settings on record: DPPC/DPPS 85/15 membranes.
Excerpt: as §1

On to complexe de silicium-catéchol, for which the dissociation du complexe entry in data set [1] was “complètement dissocié”.

As to “complexe stabilisé d'acide orthosilicique et de 4-hydroxy-3-méthoxybenzaldéhyde (vanilline) [Exemple 1]”, in data set [2], the “effet sur la transition de phase des lipides” value was “diminue l'énergie requise pour que les lipides participent à la transition de phase”. Moreover, the “effet sur le mélange lipidique” value in data set [3] is listed as “induit une démixtion des deux lipides”.
